The values that follow come from EP1274675B1, “COMPOUNDS, COMPOSITIONS AND METHODS FOR PREVENTING NEURODEGENERATION IN ACUTE AND CHRONIC INJURIES IN THE CENTRAL NERVOUS SYSTEM” (Neurotech Co., Ltd., priority 2000, dated 2001).

The test system of assay [1] is Mouse cortical cell cultures. The experiment in a line: Fe^2+-induced free radical neurotoxicity in cortical cell cultures (LDH release). The note with it: for protection against free radical neurotoxicity relative to NBAS / prevention of free radical neurotoxicity relative to BAS: comparison in words; for effect on Fe^2+-induced free radical neurotoxicity: 10 µM compound; for effect on Fe^2+-induced free radical neurotoxicity / effect on Fe^2+-induced neuronal death: continuous 50 µM Fe^2+; for effect on Fe^2+-induced neuronal death: 1 µM compound. The class given is cell-based. How it is done: (§1) Primary cortical cell cultures from embryonic mice were prepared and used to examine neuroprotective action of compounds. Mouse cortical cell culture system has been extensively used to study mechanisms and pharmacological intervention of neuronal death in neurological diseases. In brief, mouse cerebral cortices were removed from brains of the 15 day-old-fetal mice, in accordance with a protocol approved by our institutional animal care committee. […] After 7 days in vitro (DIV 7), cultures were shifted into a growth medium identical to the plating medium but lacking fetal serum. At DIV 7 - 9, […] cytosine arabinofuranoside was included to halt overgrowth of glia. Mixed cultures of neurons and glia were then fed twice a week.
On the technique in general: LDH leaks from cells whose membrane has failed.

Assay [2] relates to Mouse cortical cell cultures. The experiment in a line: NMDA neurotoxicity in cortical cell cultures (LDH release). The class given is cell-based. Conditions: for neuroprotective effect against NMDA neurotoxicity relative to BAS: comparison in words. How it is done: as §1
The nature of assay [3]: DPPH anti-oxidant assay (decrease in DPPH absorption at 517 nm). The format is biochemical. The note with it: mean ± SEM, n = 3, DPPH alone 1.2. The protocol: To examine anti-oxidant effect, DPPH (2,2-diphenyl-1-picryl-hydrazyl radical), a stable free radical, was dissolved in ethanol to make a 100 µM solution. A compound was reacted with DPPH or ethanol. After incubation for 30 min, relative decrease in DPPH absorption at 517 nm was measured by a spectrophotometer.

Assay [4] concerns Mouse cortical cell cultures. Description: Zn^2+ neurotoxicity in cortical cell cultures (LDH release). The format is cell-based. Conditions: for neuroprotective effect against Zn^2+ neurotoxicity relative to BAS: comparison in words. How it is done: as §1
Where [5] appears, read: 300 µM compound, 300 µM NMDA for 10 min, in words.
[6] abbreviates: 100 µM compound reacted with 100 uM DPPH in ethanol for 30 min.
[7] abbreviates: 10 µM compound reacted with 100 uM DPPH in ethanol for 30 min.
Setting [8] is: 30 µM compound reacted with 100 uM DPPH in ethanol for 30 min.
Setting [9] is: 300 µM compound reacted with 100 uM DPPH in ethanol for 30 min.

On to `O=C(O)c1cc(NS(=O)(=O)c2ccc([N+](=O)[O-])cc2)ccc1O` [NBSAA, 5-(4-nitrobenzenesulfonyl)aminosalicylic acid], for which the “protection against free radical neurotoxicity relative to NBAS” value in assay [1] is listed as “weaker than NBAS”. The “effect on NMDA neurotoxicity” value in assay [2] (setting [5]) was “markedly reduced”; in assay [2] (30 - 300 µM compound, 300 µM NMDA for 10 min, in words) it was “attenuated NMDA neurotoxicity in a dose-dependent manner”. The same molecule came in with an A517nm in assay [3] (setting [6]) of 0.15 ± 0.05.
`O=C(O)c1cc(NCc2c(F)c(F)c(F)c(F)c2F)ccc1O` [PBAS, 5-(pentafluorobenzyl)aminosalicylic acid]: the inhibition at 300 µM in assay [2] (Mus musculus, 300 µM compound, 300 µM NMDA for 10 min, LDH 24 hr later, read-out: reduction of NMDA-induced neuronal death) is approximately 65%.
For `CCOC(=O)c1cc(N(Cc2ccc([N+](=O)[O-])cc2)C(C)=O)ccc1O` [NNAHE, 5-(4-nitrobenzyl)-N-acetylamino-2-hydroxy ethylbenzoate], the “effect on Fe^2+-induced free radical neurotoxicity” value in assay [1] (in words) is given as “blocked”. The “effect on NMDA neurotoxicity” value in assay [2] (setting [5]) is recorded as “attenuated”.
As for `O=C(O)c1cc(NCc2ccc(C(F)(F)F)cc2)ccc1O` [TBAS, 5-(4-trifluoromethylbenzyl)aminosalicylic acid], the “neuroprotective effect against Zn^2+ neurotoxicity relative to BAS” value in assay [4] is recorded as “did not reduce neuroprotective effects of BAS”. Also, the “prevention of free radical neurotoxicity relative to BAS” value in assay [1] is “more potent than BAS”. Besides, the “neuroprotective effect against NMDA neurotoxicity relative to BAS” value in assay [2] is recorded as “did not reduce neuroprotective effects of BAS”.
Turning to `CCOC(=O)c1cc(NCc2ccc([N+](=O)[O-])cc2)ccc1O` [NAHE, 5-(4-nitrobenzyl)amino-2-hydroxy ethylbenzoate], in assay [1] (in words), the “effect on Fe^2+-induced free radical neurotoxicity” value was “blocked”. In addition, the “effect on NMDA neurotoxicity” value in assay [2] (setting [5]) is on record as “attenuated”.
For `O=C(O)c1cc(NCCc2ccc([N+](=O)[O-])cc2)ccc1O` [NPAA, 5-[2-(4-nitrophenyl)-ethyl]aminosalicylic acid], the “effect on Fe^2+-induced neuronal death” value in assay [1] (in words) is “complete blockade”. Further, the “protection against free radical neurotoxicity relative to NBAS” value in assay [1] is “more effective than NBAS”. Besides, in assay [2] (setting [5]), the “effect on NMDA neurotoxicity” value is “slightly reduced”. In addition, the A517nm in assay [3] (setting [6]) is 0.09 ± 0.01.
Regarding `Cc1c(C)c2c(c(C)c1O)CCC(C)(C(=O)O)O2` (centres unmarked) [Trolox, trolox], the A517nm in assay [3] (3 µM compound reacted with 100 uM DPPH in ethanol for 30 min) was 1.08±0.1; in assay [3] (setting [7]), 0.89±0.08; in assay [3] (setting [8]), 0.39±0.06; in assay [3] (setting [6]), 0.05±0.01; in assay [3] (setting [9]), 0.03±0.01.
For the molecule `O=C(O)c1cc(NCCCc2ccc([N+](=O)[O-])cc2)ccc1O` [NPPAA, 5-[3-(4-nitrophenyl)-n-propyl]aminosalicylic acid], the “effect on Fe^2+-induced neuronal death” value in assay [1] (in words) is reported as “complete blockade”. The “protection against free radical neurotoxicity relative to NBAS” value in assay [1] is listed as “more effective than NBAS”. The “effect on NMDA neurotoxicity” value in assay [2] (setting [5]) was “slightly reduced”. The same molecule had an A517nm in assay [3] (setting [6]) of 0.09 ± 0.02.
As to `Nc1ccc(O)c(C(=O)O)c1` [AS, 5-amino salicylic acid], the “effect on neuronal death after exposure to Zn^2+” value in assay [4] (10 - 300 µM compound during and post Zn^2+ treatment, 300 µM Zn^2+ for 30 min, in words) is given as “not reduced”. Besides, the “effect on free radical neurotoxicity following exposure to Fe^2+” value in assay [1] (10 - 100 µM compound, 24 hr-exposure to 50 µM Fe^2+, in words) is “dose-dependently prevented”. The “effect on NMDA-induced neuronal death” value in assay [2] (10 - 300 µM compound, 300 µM NMDA for 10 min, in words) is recorded as “did not attenuate”.
In the case of `CCOC(=O)c1cc(N(Cc2ccc([N+](=O)[O-])cc2)C(C)=O)ccc1OC(C)=O` [NNAAE, 5-(4-nitrobenzyl)-N-acetylamino-2-acetoxy ethylbenzoate], the “effect on Fe^2+-induced free radical neurotoxicity” value in assay [1] (in words) was “blocked”. For the same molecule, the “effect on NMDA neurotoxicity” value in assay [2] (setting [5]) is reported as “attenuated”.
Take `O=C(Nc1ccc(O)c(C(=O)O)c1)c1ccc([N+](=O)[O-])cc1` [NBAA, 5-(4-nitrobenzoyl)aminosalicylic acid]: in assay [1], the “protection against free radical neurotoxicity relative to NBAS” value is “weaker than NBAS”. Moreover, the “effect on NMDA neurotoxicity” value in assay [2] (30 µM compound, 300 µM NMDA for 10 min, in words) is listed as “significantly attenuated”. Besides, in assay [2] (above 30 µM up to 300 µM, in words), the “change of protective effect against NMDA with higher doses” value is on record as “not further increased”. In addition, the A517nm in assay [3] (setting [6]) was determined as 0.42 ± 0.22.
`O=C(O)c1cc(NCc2ccc(Cl)cc2)ccc1O` [CBAS, 5-(4-chlorobenzyl)aminosalicylic acid]: the “neuroprotective effect against Zn^2+ neurotoxicity relative to BAS” value in assay [4] is on record as “did not reduce neuroprotective effects of BAS”. In addition, the “prevention of free radical neurotoxicity relative to BAS” value in assay [1] is on record as “more potent than BAS”. Further, in assay [2], the “neuroprotective effect against NMDA neurotoxicity relative to BAS” value is “did not reduce neuroprotective effects of BAS”.
`O=C(O)c1cc(NCc2ccc([N+](=O)[O-])cc2)ccc1O` [NBAS, 5-(4-nitrobenzyl)aminosalicylic acid]: in assay [4], the “neuroprotective effect against Zn^2+ neurotoxicity relative to BAS” value is “did not reduce neuroprotective effects of BAS”. Besides, in assay [1], the “prevention of free radical neurotoxicity relative to BAS” value is recorded as “more potent than BAS”. Moreover, in assay [2], the “neuroprotective effect against NMDA neurotoxicity relative to BAS” value is on record as “did not reduce neuroprotective effects of BAS”. Further, the A517nm in assay [3] (setting [7]) is recorded as 0.37±0.1; in assay [3] (setting [8]), 0.04 ± 0.01; in assay [3] (setting [6]), 0.04±0.00; in assay [3] (setting [9]), 0.04±0.00.
